# Data: patent publication US9274101B2 (BIOLOG, Inc., priority 2001, dated 2016)
# Read-outs that look alike come from different tables or passages of the source. Where a SMILES comes first, the peptide text is derived from it. Bridges are numbered along the chain shown (N, C = ends). [ ]: non-standard residue; d: D form. The star is where a group is joined. Ileψ(thiazoline)Cys = CC[C@H](C)[C@H](N)C1=N[C@H](C(=O)*)CS1; dOrn = NCCC[C@@H](N)C(=O)O
# Tests used:
# [1] = system: TK-1 cells; assay: TK-1 cells in PM1 and PM2 plates, with or without 0.5 mM sodium pyruvate; assay type: cell-based, mouse
# Method: In this Example, methods for testing a murine T lymphoma cells (Butcher et al., Eur. J. Immunol., 10:556-561 [1980]), for their ability to use multiple carbon sources are described. The methods used to culture the TK-1 lymphoma cell line were similar to those used to culture HL-60 cells, as described in Example 27.
# TK-1 cells were grown in Falcon tissue culture flasks with vented tops. Culture medium was RPMI 1640 medium (Invitrogen 11875) with 4.5 g/L glucose, 2 mM L-glutamine, 1 mM sodium pyruvate, 0.1 mM nonessential amino acids (NEAA), 0.05 mM 2-mercaptoethanol (2ME), 2 g/L sodium bicarbonate, 5 mg/L phenol red, 50 U/mL penicillin, 50 μg/mL streptomycin, and 10% (v/v) heat inactivated fetal bovine serum (HI FBS, Invitrogen 16140). The cells were seeded at 3×10^5/mL, subcultured at 3 days after initiation of culture to 10^6 cells/mL and used 24 hours later. During all incubations, the cells were kept in an atmosphere of 5% CO2, 90-100% humidity, and 37° C.
# A viable cell count was obtained by trypan blue exclusion and an appropriate volume of the cell suspension was placed in a polypropylene centrifuge tube. The cells were washed in DPBS and then resuspended to two-thirds the final volume needed in Dulbecco ? s Modified Eagle ? s Medium (DME, Sigma D5030) with the supplements listed in Table 17, as well as 2-ME, sodium pyruvate and NEAA, and including 10% HI FBS, but without glucose, L-glutamine, sodium pyruvate, and phenol red. This medium is termed DME-RTK. An aliquot was counted by trypan blue exclusion and the cell density was adjusted to 1×10^6/mL. Fifty μL of DME-RTK were added to each well of the appropriate number of half area, 96-well plates (PM1 and PM2 MICROPLATE testing plates). The cells were divided into two lots and one lot received a 1/100 dilution of 100 mM sodium pyruvate (final concentration, 0.5 mM). Cells from both lots were plated at a final cell density of 5×10^4/well (50 μL/well). For each plate containing chemicals and cells, a second, control plate containing only chemicals was prepared. Plates were incubated at 5% CO2, 90-100% humidity, and 37° C. for 1 hour prior to addition of the MTS/MPMS colorimetric reagent (5 μL/well). The color formed in each well 24 hours after addition of the colorimetric reagent, was measured with a plate reader at 490 nm with a reference wavelength of 650 nm. OD values from the control plate were subtracted from the OD values obtained with cells prior to normalizing the data to % negative control.
# [2] = system: ten strains of E. coli; assay type: cell-based, Escherichia coli; further: key: +: indicates that the organism tested was capable of utilizing the carbon source listed; −: indicates that the organism tested was not capable of utilizing the carbon source listed; indicates weak positive reactions
# [3] = system: IMR-90 cells; assay: Testing of IMR-90 cells in PM1a testing plates; assay type: cell-based; conditions: for color of well: 24 hours of incubation
# Method: IMR-90 cells were cultured in DMEM in 150 mm diameter petri dishes to near confluence under suitable conditions (e.g., 5% CO2, at 37° C.). The cells were harvested from 19 petri dishes, using the standard trypsin-EDTA procedure to detach the cells (i.e., 5 minute treatment with trypsin-EDTA), pooled and centrifuged at 1000×g for 5 minutes at 2-8° C., and resuspended in HBSS without phenol red. The cells were again centrifuged and resuspended in 24 ml inoculating fluid (IF-h). The cell density as determined by measurement using a Coulter Counter was about 3,000,000 cells/ml. Two-fold serial dilutions were prepared using prewarmed inoculating fluid, by mixing 12 ml of cell suspension with 12 ml IF-h, to produce six suspensions having 3,000,000 cells/ml (undiluted), 1,500,000 cells/ml, 750,000 cells/ml, 375,000 cells/ml, 187,500 cells/ml, and 93,750 cells/ml. A “no cell” control was also prepared, using 12 ml inoculating fluid. Each of the cell suspensions was then immediately inoculated into a PM1a PHENOTYPE MICROARRAY testing panel (Biolog), with about 100 μl of suspension added per well.
# After approximately 4.5 hours of incubation at 37° C. in a CO2 incubator, the PHENOTYPE MICROARRAY testing panels were visually examined. […] The amount of background pink color was somewhat varied, depending upon the cell concentration. At the highest cell densities, there was a light pink color in all of the wells.
# [4] = system: HL-60 cells; assay: HL-60 cells in PM1 and PM2 plates, MTS/MPMS color, % negative control; assay type: cell-based, human; conditions: label = PM1 well (row+column); MTS/MPMS color after 24 hour, OD 490 nm
# [5] = system: Staphylococcus aureus (ATCC #29213); assay: MIC determination in MICROPLATE testing plates, saline vs GELRITE inoculant; assay type: cell-based; conditions: ATCC29213, 18 h, SF-P plates with resazurin, 35° C.
# Method: All three antimicrobials were obtained from Sigma. […] Kanamycin and tetracycline were dissolved in sterile water.
# [6] = system: E. coli MG1655; assay type: cell-based, Escherichia coli
# [7] = system: E. coli MG1655; assay: PM kinetic profiles of antimicrobials, S-O-R scoring and dendrogram; assay type: cell-based, Escherichia coli
# [8] = system: E. coli (MG1655); assay: Sensitivity in ES1, ES2, ES3 MICROPLATE panels in the presence of vancomycin or sulfamethoxazole (synergy/antagonism); assay type: cell-based, Escherichia coli
# [9] = in the presence of 0.5 mM sodium pyruvate
# [10] = approximately 4.5 hours at 37° C.
# [11] = 1× level of each antimicrobial, 7 PMs, 48 hours
# [12] = in the presence of 10 μg/ml vancomycin
# [13] = in the presence of 235 μg/ml sulfamethoxazole
compound,measurement,setting,value
O=C(O)c1ccc(O)cc1 [4-hydroxy-benzoic acid],response of TK-1 cells,[1]; [9],gained responses
O=C[C@@H](O)[C@@H](O)[C@H](O)[C@H](O)CO [D-mannose],carbon source utilization,[2],+
same,color of well,[3],distinctly darker clump of red cells
same,cellular morphology (microscopic),[3]; [10],the cells looked healthy
O=C(CO)[C@H](O)[C@H](O)[C@H](O)CO [D-psicose],carbon source utilization,[2],+
same,cellular morphology (microscopic),[3]; [10],the cells looked healthy
same,color of well (carbon source oxidation),[3]; [10],distinctly more pink than any other well
O=C(O)CC(CC(=O)O)C(=O)O [G2],Response of HL-60 Cells to the Carbon Sources of PM1,[4],96 % of negative control
"NC[C@H]1O[C@H](O[C@H]2[C@H](O)[C@@H](O[C@H]3O[C@H](CO)[C@@H](O)[C@H](N)[C@H]3O)[C@H](N)C[C@@H]2N)[C@H](O)[C@@H](O)[C@@H]1O [Kanamycin, kanamycin]",MIC,[5]; diluent GELRITE (0.4%),16 to 32 µg/mL
same,MIC,[5]; diluent Saline,16 to 32 µg/mL
N[C@@H](CCO)C(=O)O [L-homoserine],response of TK-1 cells,[1]; [9],lost responses
same,"suitability as nitrogen source (growth, purple color)",[6],not suitable
NCCC[C@H](N)C(=O)O [L-ornithine],response of TK-1 cells,[1]; [9],lost responses
same,"suitability as nitrogen source (growth, purple color)",[6],not suitable
N[C@@H](Cc1ccccc1)C(=O)O [L-phenylalanine],response of TK-1 cells,[1]; [9],gained responses
same,"suitability as nitrogen source (growth, purple color)",[6],not suitable
COC(=O)C(C)=O [Methyl pyruvate],carbon source utilization,[2],+
same,cellular morphology (microscopic),[3]; [10],the cells were rounded up and appeared to be stressed
"CN(C)[C@@H]1C(O)=C(C(N)=O)C(=O)[C@@]2(O)C(O)=C3C(=O)c4c(O)cccc4[C@@](C)(O)[C@H]3C[C@@H]12 [Tetracycline, tetracycline]",MIC,[5]; diluent GELRITE (0.4%),0.25 to 1 µg/mL
same,MIC,[5]; diluent Saline,0.25 to 2 µg/mL
OC[C@H]1O[C@@H](Oc2ccc(O)cc2)[C@H](O)[C@@H](O)[C@@H]1O [arbutin],response of TK-1 cells,[1]; [9],gained responses
CC[C@H](C)[C@H](N)C1=N[C@H](C(=O)N[C@@H](CC(C)C)C(=O)N[C@H](CCC(=O)O)C(=O)N[C@H](C(=O)N[C@H]2CCCCNC(=O)[C@H](CC(N)=O)NC(=O)[C@@H](CC(=O)O)NC(=O)[C@H](Cc3cnc[nH]3)NC(=O)[C@@H](Cc3ccccc3)NC(=O)[C@H]([C@@H](C)CC)NC(=O)[C@@H](CCCN)NC2=O)[C@@H](C)CC)CS1 [bacitracin] ({Ileψ(thiazoline)Cys}-L[dE]IK[dOrn]I[dF]H[dD]N; lactam 4-C),position in dendrogram of PM response profiles (FIG. 9),[7]; [11],cluster
CO[C@@]1(NC(=O)Cc2cccs2)C(=O)N2C(C(=O)O)=C(COC(N)=O)CS[C@@H]21 [cefoxitin],change of sensitivity to the panel compound,[8]; [12],increased sensitivity
NC(=O)c1cc[n+](CC2=C(C(=O)O)N3C(=O)[C@@H](NC(=O)[C@@H](c4ccccc4)S(=O)(=O)[O-])[C@H]3SC2)cc1 [cefsulodin],change of sensitivity to the panel compound,[8]; [13],increased sensitivity
O=C(Cc1cccs1)N[C@@H]1C(=O)N2C(C(=O)[O-])=C(C[n+]3ccccc3)CS[C@H]12 [cephaloridine],change of sensitivity to the panel compound,[8]; [13],increased sensitivity
CC(=O)OCC1=C(C(=O)O)N2C(=O)[C@@H](NC(=O)Cc3cccs3)[C@H]2SC1 [cephalothin],change of sensitivity to the panel compound,[8]; [12],increased sensitivity
same,change of sensitivity to the panel compound,[8]; [13],increased sensitivity
same,position in dendrogram of PM response profiles (FIG. 9),[7]; [11],cluster
C/C=C/C/C=C/CCC(=O)[C@H]1O[C@H]1C(N)=O [cerulenin],position in dendrogram of PM response profiles (FIG. 9),[7]; [11],more closely resembled the multiple target antimicrobials
[Cl][Cr]([Cl])[Cl] [chromium chloride],change of sensitivity to the panel compound,[8],increased sensitivity
[Cl][Co][Cl] [cobalt chloride],change of sensitivity to the panel compound,[8],increased sensitivity
CC(=O)O[C@H]1C[C@@]2(C)[C@@H](C[C@@H](O)[C@H]3[C@@]4(C)CC[C@@H](O)[C@@H](C)[C@@H]4CC[C@@]32C)/C1=C(\CCC=C(C)C)C(=O)O [fusidic acid],change of sensitivity to the panel compound,[8]; [12],increased sensitivity
CCn1cc(C(=O)O)c(=O)c2ccc(C)nc21 [nalidixic acid],change of sensitivity to the panel compound,[8],increased sensitivity
same,position in dendrogram of PM response profiles (FIG. 9),[7],did not cluster with the other two DNA gyrase inhibiting chemicals
[Cl][Ni][Cl] [nickel chloride],change of sensitivity to the panel compound,[8],increased sensitivity
CO[C@@H]1[C@@H](OC(N)=O)[C@@H](O)[C@H](Oc2ccc3c(O)c(NC(=O)c4ccc(O)c(CC=C(C)C)c4)c(=O)oc3c2C)OC1(C)C [novobiocin],change of sensitivity to the panel compound,[8],increased resistance
same,change of sensitivity to the panel compound,[8]; [12],increased sensitivity
CCn1cc(C(=O)O)c(=O)c2cc3c(cc21)OCO3 [oxolinic acid],position in dendrogram of PM response profiles (FIG. 9),[7]; [11],clustered
C[C@@H]1O[C@@H]1P(=O)(O)O [phosphomycin],position in dendrogram of PM response profiles (FIG. 9),[7]; [11],cluster
O=C(O)CCCCCCCCC(=O)O [sebacic acid],response of TK-1 cells,[1]; [9],gained responses
O=C([O-])CC(O)C(=O)[O-].[Na+].[Na+] (stereo not shown) [sodium malate],cellular morphology (microscopic),[3],the cells were rounded up and appeared to be stressed
[H]/N=C(/N)N[C@H]1[C@H](O)[C@@H](O)[C@H](O[C@@H]2O[C@@H](C)[C@](O)(C=O)[C@H]2O[C@@H]2O[C@@H](CO)[C@H](O)[C@@H](O)[C@@H]2NC)[C@@H](N/C(N)=N\[H])[C@@H]1O [streptomycin],position in dendrogram of PM response profiles (FIG. 9),[7]; [11],cluster
Nc1ccc(S(=O)(=O)Nc2nccs2)cc1 [sulfathiazole],position in dendrogram of PM response profiles (FIG. 9),[7]; [11],more closely resembled the multiple target antimicrobials
COc1cc(Cc2cnc(N)nc2N)cc(OC)c1OC [trimethoprim],change of sensitivity to the panel compound,[8]; [12],increased sensitivity
same,change of sensitivity to the panel compound,[8]; [13],increased sensitivity
OC[C@H]1O[C@@H](O[C@H]2[C@H](O)[C@@H](O)[C@@H](O)O[C@@H]2CO)[C@H](O)[C@@H](O)[C@H]1O [α-D-lactose],carbon source utilization,[2],+
same,color of well,[3],distinctly darker clump of red cells
CO[C@@H]1OC[C@@H](O)[C@H](O)[C@H]1O [β-methyl xyloside],response of TK-1 cells,[1]; [9],gained responses
O=C(O)CCCO [γ-hydroxybutyric acid],response of TK-1 cells,[1],lost responses
coumermycin,position in dendrogram of PM response profiles (FIG. 9),[7],clustered
pectin,response of TK-1 cells,[1]; [9],gained responses
polymyxin B,position in dendrogram of PM response profiles (FIG. 9),[7],more closely resembled the multiple target antimicrobials
